This note sets out measurements from PMC6514978, “Synthesis, Antibacterial Activities, Mode of Action and Acute Toxicity Studies of New Oxazolidinone-Fluoroquinolone Hybrids” (Molecules, 2019).

Converted amounts (≈) assume the structure as drawn.

The subject of assay [1] is other resistant organisms in the test. Kind of assay: MIC summary, resistant organisms other than MRSA and MRSE. To be noted: resistant strains other than MRSA and MRSE; read-out: MICs values against other resistant organisms. It counts as cell-based. An excerpt:
(§1) 6 standard strains and 3 clinical isolates were used to the preliminary evaluation of in vitro antibacterial activities of oxazolidinone-fluoroquinolone hybrids. For the further evaluation of hybrids OBP-4 and OBP-5, 263 clinical isolates including S. aureus (46), S. haemolyticus(32), S. epidermidis (10), E. faecalis (72), E. faecium (47), S. pneumoniae (13), H. parasuis (34), S. suis (9), and 8 resistant strains including MRSA, MRSE, CIP-resistant S. aureus and S. haemolyticus, VAN and quinolone-resistant S. pneumoniae, LZD-resistant E. faecalis, LZD/VAN and quinolone-resistant E. faecium were collected and tested.
Susceptibility testing of oxazolidinone-fluoroquinolone hybrids against various bacteria was performed by the broth microdilution method as outlined by the Clinical and Laboratory Standards Institute (CLSI). Three types of media, including cation-adjusted Mueller Hinton broth, Haemophilus Test Medium and cation-adjusted Mueller Hinton broth that contained 3%–5% lysed horse blood, were used to culture the corresponding bacteria. All compounds including comparator drugs were dissolved in an appropriate solvent at a concentration of 2.048 mg/mL and then serially diluted two-fold to provide the required concentrations. A final inoculum of 5 × 10^5 CFU/mL was used and plates were read after incubation for 16–24 h at 35 °C. […]

Assay [2] deals with Gram-positive isolates. The assay can be described thus: MIC summary, clinical isolates. It counts as cell-based. Conditions: for MIC90: Gram-positive clinical isolates, read-out: MIC90 values for Gram-positive isolates (span over species).
Source text: as §1
Susceptibility testing of oxazolidinone-fluoroquinolone hybrids against various bacteria was performed by the broth microdilution method as outlined by the Clinical and Laboratory Standards Institute (CLSI). Three types of media, including cation-adjusted Mueller Hinton broth, Haemophilus Test Medium and cation-adjusted Mueller Hinton broth that contained 3%–5% lysed horse blood, were used to culture the corresponding bacteria. All compounds including comparator drugs were dissolved in an appropriate solvent at a concentration of 2.048 mg/mL and then serially diluted two-fold to provide the required concentrations. A final inoculum of 5 × 10^5 CFU/mL was used and plates were read after incubation for 16–24 h at 35 °C. […] Standard quality control strains (ATCC) were included throughout. Each determination was repeated in triplicate.

The target in assay [3] is T1, E. coli DNA gyrase (Escherichia coli, UniProt P0AES4+P0AES6).
T1 construct: purchased Inspiralis Co., Ltd; host or cells: E. coli
The assay can be described thus: DNA gyrase supercoiling assay. The class given is biochemical. Conditions: supercoiling of relaxed pBR322, 37 °C, 30 min. On the procedure: The E. coli DNA Gyrase Supercoiling Assay Kit (Inspiralis Co., Ltd.) was used to investigate the inhibition activities of hybrids OBP-4 and OBP-5 against DNA gyrase. DNA gyrase is prepared from E. coli. One unit of DNA gyrase can convert 0.5 μg of relaxed pBR322 to the supercoiled forms in 30 min. […] The reaction was terminated by adding 30 μL of STEB and 30 μL of chloroform/isoamyl alcohol (v:v, 24:1), and then the products were resolved by gel electrophoresis on 1% (w/v) agarose gel at 80 V for 2 h in the absence of ethidium bromide. The gels were stained with ethidium bromide (1 μg/mL in distilled water) for 15 min, and destained (5–10 min) in distilled water. DNA bands were visualized with UV light in Bio-Rad® Chemidoc xrs and analyzed by using Quantity One software (Version 4.6, Bio-Rad).

The target in assay [4] is T2, E. coli Topo IV (Escherichia coli, UniProt P0AFI2+P20083).
T2 construct: purchased Inspiralis Co., Ltd; host or cells: overexpressing E. coli
Kind of assay: Topo IV relaxation assay. It counts as biochemical. To be noted: relaxation of supercoiled pBR322, 37 °C, 30 min. On the procedure: The E. coli Topo IV Relaxation Assay Kit (Inspiralis Co., Ltd.) was used to evaluate the effects of hybrids OBP-4 and OBP-5 against topo IV. Topo IV was prepared by the overexpressing E. coli. One unit of topo IV will relax 0.4 μg of supercoiled pBR322. In the assay, the final reaction mixtures (30 μL) consisted of 0.4 μg supercoiled pBR322 and one unit DNA Topo IV with or without compounds in assay buffer with 40 mM Hepes-KOH (pH 7.6), 100 mM potassium glutamate, 10 mM magnesium acetate, 10 mM DTT, 1 mM ATP and 50 μg/mL albumin, and then was incubated at 37 °C for 30 min. The reaction was terminated by adding 30 μL of STEB and 30 μL of chloroform/isoamyl alcohol (v:v, 24:1) after incubation for 30 min. Then, the reaction products were processed as described in a DNA gyrase supercoiling assay.

T1 sequence (P0AES4 whole entry, one chain of several): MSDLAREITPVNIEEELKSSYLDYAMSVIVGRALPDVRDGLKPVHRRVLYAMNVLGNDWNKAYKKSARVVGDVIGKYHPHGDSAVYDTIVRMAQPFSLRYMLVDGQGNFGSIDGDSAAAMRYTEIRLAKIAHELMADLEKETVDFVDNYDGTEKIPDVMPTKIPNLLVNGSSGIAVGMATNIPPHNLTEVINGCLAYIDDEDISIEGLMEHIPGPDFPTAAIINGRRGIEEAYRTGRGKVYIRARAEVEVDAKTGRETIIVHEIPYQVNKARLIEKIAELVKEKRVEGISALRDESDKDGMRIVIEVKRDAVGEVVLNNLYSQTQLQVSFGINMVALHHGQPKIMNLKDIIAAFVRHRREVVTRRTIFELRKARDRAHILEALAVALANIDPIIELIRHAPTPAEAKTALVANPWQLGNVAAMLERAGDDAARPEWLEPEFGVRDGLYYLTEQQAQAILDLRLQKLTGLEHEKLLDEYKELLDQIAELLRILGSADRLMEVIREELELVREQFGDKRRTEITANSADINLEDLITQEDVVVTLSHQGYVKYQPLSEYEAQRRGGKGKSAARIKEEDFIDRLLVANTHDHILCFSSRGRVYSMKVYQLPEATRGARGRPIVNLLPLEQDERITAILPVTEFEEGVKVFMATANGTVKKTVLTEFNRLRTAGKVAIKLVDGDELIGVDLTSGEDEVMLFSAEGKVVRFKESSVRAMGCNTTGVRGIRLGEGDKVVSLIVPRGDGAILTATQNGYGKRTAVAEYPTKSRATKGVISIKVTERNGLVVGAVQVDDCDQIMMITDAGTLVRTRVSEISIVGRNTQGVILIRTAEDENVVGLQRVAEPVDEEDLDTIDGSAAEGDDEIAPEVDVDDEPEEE
T2 sequence (P20083 whole entry): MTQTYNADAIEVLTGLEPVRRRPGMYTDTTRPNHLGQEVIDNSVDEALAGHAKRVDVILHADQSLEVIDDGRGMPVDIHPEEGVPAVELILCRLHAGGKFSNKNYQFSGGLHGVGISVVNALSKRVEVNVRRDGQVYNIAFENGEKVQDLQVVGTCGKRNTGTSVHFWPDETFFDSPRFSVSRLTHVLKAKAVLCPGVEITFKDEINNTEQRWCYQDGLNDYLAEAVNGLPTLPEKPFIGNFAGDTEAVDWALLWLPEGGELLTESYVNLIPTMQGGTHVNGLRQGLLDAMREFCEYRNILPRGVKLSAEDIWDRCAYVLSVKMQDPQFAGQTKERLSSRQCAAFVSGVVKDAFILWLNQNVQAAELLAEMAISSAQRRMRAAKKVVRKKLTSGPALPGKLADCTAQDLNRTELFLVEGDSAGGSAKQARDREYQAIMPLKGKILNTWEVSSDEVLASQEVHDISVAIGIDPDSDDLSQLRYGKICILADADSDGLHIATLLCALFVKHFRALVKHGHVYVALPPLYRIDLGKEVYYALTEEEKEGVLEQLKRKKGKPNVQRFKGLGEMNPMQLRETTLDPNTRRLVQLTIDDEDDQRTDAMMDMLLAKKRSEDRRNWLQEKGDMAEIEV
T2 sequence (P0AFI2 whole entry): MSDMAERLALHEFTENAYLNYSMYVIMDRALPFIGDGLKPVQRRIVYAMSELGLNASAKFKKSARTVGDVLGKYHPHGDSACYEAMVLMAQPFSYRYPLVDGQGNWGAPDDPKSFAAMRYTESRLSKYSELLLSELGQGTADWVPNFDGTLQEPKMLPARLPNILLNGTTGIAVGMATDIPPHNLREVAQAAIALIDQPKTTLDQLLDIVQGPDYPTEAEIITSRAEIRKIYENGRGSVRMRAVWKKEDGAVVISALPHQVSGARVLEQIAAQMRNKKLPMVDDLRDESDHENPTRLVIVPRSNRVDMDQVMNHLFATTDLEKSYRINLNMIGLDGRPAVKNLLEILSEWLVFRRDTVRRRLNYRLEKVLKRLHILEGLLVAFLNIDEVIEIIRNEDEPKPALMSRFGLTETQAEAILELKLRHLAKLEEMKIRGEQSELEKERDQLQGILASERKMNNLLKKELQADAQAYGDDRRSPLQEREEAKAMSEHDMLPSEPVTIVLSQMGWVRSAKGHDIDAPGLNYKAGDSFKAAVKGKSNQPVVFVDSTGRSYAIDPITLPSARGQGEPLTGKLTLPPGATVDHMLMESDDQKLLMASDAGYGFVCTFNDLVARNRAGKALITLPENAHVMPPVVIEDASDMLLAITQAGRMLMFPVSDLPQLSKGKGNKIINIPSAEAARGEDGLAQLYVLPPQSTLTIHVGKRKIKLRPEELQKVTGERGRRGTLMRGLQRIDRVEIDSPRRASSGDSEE

As usually defined, the MIC90 is the lowest concentration that inhibits either 90% of growth or 90% of the strains tested, depending on the study. In general, IC50 refers to the point on the concentration scale where inhibition reaches its midpoint. Consider `C[C@H]1CCc2c(N3CCC(O)(COc4ccc(N5C[C@H](CO)OC5=O)cc4F)CC3)c(F)cc3c(=O)c(C(=O)O)cn1c23` [OBP-4], for which, in assay [1], the MIC was in the range of 0.0625 to 1 µg/mL (≈ 0.104 to 1.67 µM). In assay [2], the MIC90 fell in the range of 0.125 to 0.25 µg/mL (≈ 0.208 to 0.417 µM). In addition, the values for the IC50 in assay [3] and in assay [4] were 1 to 5 µM and 10 to 15 µM, respectively.
`CC1Sc2c(C(=O)O)c(=O)c3cc(F)c(N4CCC(O)(COc5ccc(N6C[C@H](CO)OC6=O)cc5F)CC4)cc3n21` (stereo partly drawn) [OBP-5]: in assay [1], the MIC was in the range of 0.0625 to 1 µg/mL (≈ 0.104 to 1.66 µM). Besides, in assay [2], the MIC90 fell in the range of 0.0625 to 0.25 µg/mL (≈ 0.104 to 0.414 µM). Further, the “fold greater activity than OBP-4, overall” value in assay [2] (tested clinical isolates) came out at 2 fold. Also, the figures for the concentration for half-maximal inhibition (IC50) in assay [3] and in assay [4] were 20 µM and more than 40 µM, respectively.
